What follows are compounds tested on LAMA-84 (assay: cell viability (% survival relative to DMSO control, bortezomib = 0%); higher = less cytotoxic). Conditions: 10 nM; 72 h.
Procedure, shortened: (§1)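 In 384-well plates pre-printed with compounds at 1, 10, 100, 1000 or 10000 nM, duplicate wells received cells from 10 AML and 5 CML lines at densities within the linear growth range. The plates stayed at 37 °C with 5% CO2 for 72 h before CellTiter-Glo luminescence was recorded. Each entry is averaged percent survival. Scaling placed vehicle at 100% and a 10 µM positive control at 0%.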

Compared with `COc1ccc(CNC(=O)Nc2ncc([N+](=O)[O-])s2)cc1`, `C[C@H](NC(=O)c1sccc1OCc1ccc(Cl)cc1)c1ccccc1` is lower in cell viability: 105% for the first, 100% for the second.

Compared with `CCOP(=O)(OCC)C(=Cc1cc(C(C)(C)C)c(O)c(C(C)(C)C)c1)P(=O)(OCC)OCC`, `CC(C)(C#N)c1cc(Cn2cncn2)cc(C(C)(C)C#N)c1` [Anastrozole] is lower in cell viability: 99.1% for the first, 97.6% for the second.

Going from `COc1ccc(-c2ccccc2)cc1NS(=O)(=O)c1cc(Cl)cc(Cl)c1O` to `O=C(O)c1cc(Cl)cc(Cl)c1O` [3,5-Dichlorosalicylic Acid], the cell viability falls from 95.1% to 87.4%.

First: O=C(O)C(=O)CBr [3-bromopyruvic acid]
Second: O=C(O)C1=CC(=C(c2ccc(O)c(C(=O)O)c2)c2ccc(O)c(C(=O)O)c2)C=CC1=O [Aurintricarboxylic acid]
The cell viability of the first is lower: 101% for the first, 102% for the second.

Going from `NS(=O)(=O)c1ccc([N+](=O)[O-])cc1` [4-Nitrobenzenesulfonamide] to `Cc1ccccc1C(C(=O)NC1CCCCC1)N(C(=O)Cn1ccnc1C)c1cccc(F)c1` (configuration not stated) [AGI-5198], the cell viability rises from 95.1% to 104%.

Same assay, conditions: 100 nM; 72 h

Compared with `CN(C)C(=O)[C@H](O)[C@H](Cc1ccccc1)NC(=O)c1cc2cc(Cl)ccc2[nH]1`, `C[C@H](NC(=O)c1sccc1OCc1ccc(Cl)cc1)c1ccccc1` is lower in cell viability: 114% for the first, 94% for the second.

Going from `COc1ccc(CNC(=O)Nc2ncc([N+](=O)[O-])s2)cc1` to `NS(=O)(=O)c1ccc([N+](=O)[O-])cc1` [4-Nitrobenzenesulfonamide], the cell viability falls from 110% to 103%.

Going from `CCOP(=O)(OCC)C(=Cc1cc(C(C)(C)C)c(O)c(C(C)(C)C)c1)P(=O)(OCC)OCC` to `CC(C)(C#N)c1cc(Cn2cncn2)cc(C(C)(C)C#N)c1` [Anastrozole], the cell viability falls from 114% to 96.3%.

First: COc1ccc(-c2ccccc2)cc1NS(=O)(=O)c1cc(Cl)cc(Cl)c1O
Second: O=C(O)c1cc(Cl)cc(Cl)c1O [3,5-Dichlorosalicylic Acid]
The cell viability of the first is higher: 113% for the first, 97.5% for the second.

First: O=C(O)C(=O)CBr [3-bromopyruvic acid]
Second: O=C(O)C1=CC(=C(c2ccc(O)c(C(=O)O)c2)c2ccc(O)c(C(=O)O)c2)C=CC1=O [Aurintricarboxylic acid]
The cell viability of the first is lower: 99.5% for the first, 100% for the second.

`Cc1ccccc1C(C(=O)NC1CCCCC1)N(C(=O)Cn1ccnc1C)c1cccc(F)c1` (configuration not stated) [AGI-5198] was tested, and the cell viability was 115%.

Same assay, conditions: 1000 nM; 72 h

Going from `CN(C)C(=O)[C@H](O)[C@H](Cc1ccccc1)NC(=O)c1cc2cc(Cl)ccc2[nH]1` to `C[C@H](NC(=O)c1sccc1OCc1ccc(Cl)cc1)c1ccccc1`, the cell viability falls from 107% to 98.9%.

First: COc1ccc(CNC(=O)Nc2ncc([N+](=O)[O-])s2)cc1
Second: NS(=O)(=O)c1ccc([N+](=O)[O-])cc1 [4-Nitrobenzenesulfonamide]
The cell viability of the first is higher: 104% for the first, 95.4% for the second.

First: CCOP(=O)(OCC)C(=Cc1cc(C(C)(C)C)c(O)c(C(C)(C)C)c1)P(=O)(OCC)OCC
Second: CC(C)(C#N)c1cc(Cn2cncn2)cc(C(C)(C)C#N)c1 [Anastrozole]
The cell viability of the first is lower: 97.6% for the first, 99.9% for the second.

`COc1ccc(-c2ccccc2)cc1NS(=O)(=O)c1cc(Cl)cc(Cl)c1O` and `O=C(O)c1cc(Cl)cc(Cl)c1O` [3,5-Dichlorosalicylic Acid] are the same in cell viability: 103% for the first, 103% for the second.

First: O=C(O)C(=O)CBr [3-bromopyruvic acid]
Second: O=C(O)C1=CC(=C(c2ccc(O)c(C(=O)O)c2)c2ccc(O)c(C(=O)O)c2)C=CC1=O [Aurintricarboxylic acid]
The cell viability of the first is higher: 99.4% for the first, 89% for the second.

With `Cc1ccccc1C(C(=O)NC1CCCCC1)N(C(=O)Cn1ccnc1C)c1cccc(F)c1` (configuration not stated) [AGI-5198] the cell viability was 97.2%.

Same assay, conditions: 10000 nM; 72 h

First: CN(C)C(=O)[C@H](O)[C@H](Cc1ccccc1)NC(=O)c1cc2cc(Cl)ccc2[nH]1
Second: C[C@H](NC(=O)c1sccc1OCc1ccc(Cl)cc1)c1ccccc1
The cell viability of the first is higher: 83.3% for the first, 65.4% for the second.

Going from `COc1ccc(CNC(=O)Nc2ncc([N+](=O)[O-])s2)cc1` to `NS(=O)(=O)c1ccc([N+](=O)[O-])cc1` [4-Nitrobenzenesulfonamide], the cell viability falls from 108% to 98.6%.

First: CCOP(=O)(OCC)C(=Cc1cc(C(C)(C)C)c(O)c(C(C)(C)C)c1)P(=O)(OCC)OCC
Second: CC(C)(C#N)c1cc(Cn2cncn2)cc(C(C)(C)C#N)c1 [Anastrozole]
The cell viability of the first is lower: 94.1% for the first, 97.7% for the second.

First: COc1ccc(-c2ccccc2)cc1NS(=O)(=O)c1cc(Cl)cc(Cl)c1O
Second: O=C(O)c1cc(Cl)cc(Cl)c1O [3,5-Dichlorosalicylic Acid]
The cell viability of the first is higher: 99% for the first, 92% for the second.

Going from `O=C(O)C(=O)CBr` [3-bromopyruvic acid] to `O=C(O)C1=CC(=C(c2ccc(O)c(C(=O)O)c2)c2ccc(O)c(C(=O)O)c2)C=CC1=O` [Aurintricarboxylic acid], the cell viability rises from 98% to 106%.

With `Cc1ccccc1C(C(=O)NC1CCCCC1)N(C(=O)Cn1ccnc1C)c1cccc(F)c1` (configuration not stated) [AGI-5198] the cell viability was 99.9%.

These compounds were tested on SHI-1 in the same assay as above. Conditions: 1 nM; 72 h.
Procedure, shortened: as §1

Compared with `CN(C)C(=O)[C@H](O)[C@H](Cc1ccccc1)NC(=O)c1cc2cc(Cl)ccc2[nH]1`, `C[C@H](NC(=O)c1sccc1OCc1ccc(Cl)cc1)c1ccccc1` is lower in cell viability: 106% for the first, 82.5% for the second.

First: COc1ccc(CNC(=O)Nc2ncc([N+](=O)[O-])s2)cc1
Second: NS(=O)(=O)c1ccc([N+](=O)[O-])cc1 [4-Nitrobenzenesulfonamide]
The cell viability of the first is higher: 105% for the first, 102% for the second.

First: CCOP(=O)(OCC)C(=Cc1cc(C(C)(C)C)c(O)c(C(C)(C)C)c1)P(=O)(OCC)OCC
Second: CC(C)(C#N)c1cc(Cn2cncn2)cc(C(C)(C)C#N)c1 [Anastrozole]
The cell viability of the first is lower: 100% for the first, 108% for the second.

First: COc1ccc(-c2ccccc2)cc1NS(=O)(=O)c1cc(Cl)cc(Cl)c1O
Second: O=C(O)c1cc(Cl)cc(Cl)c1O [3,5-Dichlorosalicylic Acid]
The cell viability of the first is lower: 95.9% for the first, 110% for the second.

First: O=C(O)C(=O)CBr [3-bromopyruvic acid]
Second: O=C(O)C1=CC(=C(c2ccc(O)c(C(=O)O)c2)c2ccc(O)c(C(=O)O)c2)C=CC1=O [Aurintricarboxylic acid]
The cell viability of the first is lower: 98.8% for the first, 104% for the second.

For `Cc1ccccc1C(C(=O)NC1CCCCC1)N(C(=O)Cn1ccnc1C)c1cccc(F)c1` (configuration not stated) [AGI-5198], the cell viability was 94.9%.

Same assay, conditions: 10 nM; 72 h

Compared with `CN(C)C(=O)[C@H](O)[C@H](Cc1ccccc1)NC(=O)c1cc2cc(Cl)ccc2[nH]1`, `C[C@H](NC(=O)c1sccc1OCc1ccc(Cl)cc1)c1ccccc1` is higher in cell viability: 97.8% for the first, 98.7% for the second.

Going from `COc1ccc(CNC(=O)Nc2ncc([N+](=O)[O-])s2)cc1` to `NS(=O)(=O)c1ccc([N+](=O)[O-])cc1` [4-Nitrobenzenesulfonamide], the cell viability falls from 101% to 90.7%.

First: CCOP(=O)(OCC)C(=Cc1cc(C(C)(C)C)c(O)c(C(C)(C)C)c1)P(=O)(OCC)OCC
Second: COc1ccc(-c2ccccc2)cc1NS(=O)(=O)c1cc(Cl)cc(Cl)c1O
The cell viability of the first is lower: 89.7% for the first, 101% for the second.

Compared with `O=C(O)c1cc(Cl)cc(Cl)c1O` [3,5-Dichlorosalicylic Acid], `O=C(O)C(=O)CBr` [3-bromopyruvic acid] is lower in cell viability: 105% for the first, 98.3% for the second.

From the supplement of paper PMC8671470
